In patent US20050020501A1, “Methods of modulating the activity of mura” (SmithKline Beecham Corporation and SmithKline Beechm p.l.c., priority 2000, published 2005):
pKi: −log10 of the molar value. Values after ≈ are worked out from the molar mass of the structure shown. “Also recorded” adds a separate entry of the source. Where a name gives a salt, the structure may show the parent alone. Read-outs that look alike come from different tables or passages of the source.

Key:
[1] = target: T1, EPSP Synthase (S. pneumoniae) (Streptococcus pneumoniae serotype 4, UniProt Q9S400); assay: EPSPS kinetic assay, fluorescence coupled detection of inorganic phosphate release; format: biochemical; details: for Inhibition type vs. S3P / Inhibition type vs. PEP: EPSP synthase; for Inhibition type vs. S3P: varied substrate S3P; for Inhibition of EPSPS (in words): rosolic acid tested up to 2 mM; for Inhibition type vs. PEP: varied substrate PEP
T1 construct: made in house
Description: (§1) All chemicals including ATA and its salt forms are from Aldrich. SKF-26488-W3 was isolated as a high-throughput screen hit against EPSPS. Escherichia coli MurA (Marquardt, et al., J. Bacteriol., Vol. 174: 5748-5752 (1992)) and Streptococcus pneumoniae EPSPS (Du, et al., Eur. J. Biochem., Vol. 267: 222-227 (2000)) were expressed and purified as described previously.
(§2) The assays for both EPSPS and MurA are based on the detection of inorganic phosphate release. A fluorescence coupled assay was used for EPSPS and was performed in 100 mM HEPES, pH 7.0, 1 mM NH4Cl, 100 mM KCl. (Du, et al., Eur. J. Biochem., Vol. 267: 222-227 (2000)). MurA was assayed in 50 mM HEPES, pH 7.5, 1 mM DTI using the Malachite Green reagent (Lanzetta, et al., Anal. Biochem., Vol. 100: 95-97 (1979)). The Ki values were determined with fixed concentration of one substrate and varying concentrations of the other substrate and inhibitor. Data were analyzed using GraFit v4.09 (Erithacus Software Ltd.).

S. pneumoniae 100993 = assay: Antibacterial activity, minimum inhibitory concentration; format: cell-based, Streptococcus pneumoniae; details: for Effect of adding aromatic amino acids and PABA on antibacterial activity in minimal media: minimal media with versus without aromatic amino acids and PABA; for Antibacterial activity compared across media: TH media and minimal media with and without supplements
Protocol: The antibacterial activity of ATA against S.pneumoniae100993 was measured in Todd Hewitt media, minimal media, and minimal media+aromatic amino acids (100 mg/L) and p-aminobenzoic acid (PABA) (0.2 mg/L). Glyphosate, chloramphenical and ciprofloxacin were controls.

MurA (E. coli) = target: T2, MurA (E. coli) (Escherichia coli, UniProt P0A749); assay: MurA kinetic assay, Malachite Green detection of inorganic phosphate release; format: biochemical; details: for pKi / Inhibition type vs. PEP / Inhibition type vs. UDPAG: MurA
T2 construct: made in house
Description: as §1, §2

[2] = Streptococcus pneumoniae, 100993, read-out: Minimum Inhibitory Concentration, Minimal media
[3] = Streptococcus pneumoniae, 100993, read-out: Minimum Inhibitory Concentration, Minimal media w/aa's + PABA
[4] = Streptococcus pneumoniae, 100993, read-out: Minimum Inhibitory Concentration, TH
[5] = Streptococcus pneumoniae, 100993, Chemically Defined Medium for Group A Streptococci without aromatic amino acids and PABA, read-out: Minimum Inhibitory Concentration, Minimal media
[6] = Streptococcus pneumoniae, 100993, JRH Strep media with aromatic amino acids and PABA, read-out: Minimum Inhibitory Concentration, Minimal media w/aa's + PABA
[7] = Streptococcus pneumoniae, 100993, Todd Hewitt broth, read-out: Minimum Inhibitory Concentration, TH

T2 sequence (P0A749 whole entry): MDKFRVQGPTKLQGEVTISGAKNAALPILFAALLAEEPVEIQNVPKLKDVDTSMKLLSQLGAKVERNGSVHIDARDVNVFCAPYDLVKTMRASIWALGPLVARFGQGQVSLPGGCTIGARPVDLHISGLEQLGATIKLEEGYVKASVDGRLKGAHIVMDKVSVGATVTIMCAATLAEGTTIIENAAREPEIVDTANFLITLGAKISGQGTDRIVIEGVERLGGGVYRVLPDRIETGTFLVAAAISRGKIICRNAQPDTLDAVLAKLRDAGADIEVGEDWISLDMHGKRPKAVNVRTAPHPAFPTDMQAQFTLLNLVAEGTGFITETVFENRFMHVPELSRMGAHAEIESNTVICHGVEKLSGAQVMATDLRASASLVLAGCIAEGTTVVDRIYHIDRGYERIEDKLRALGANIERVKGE
T1 sequence (Q9S400 whole entry): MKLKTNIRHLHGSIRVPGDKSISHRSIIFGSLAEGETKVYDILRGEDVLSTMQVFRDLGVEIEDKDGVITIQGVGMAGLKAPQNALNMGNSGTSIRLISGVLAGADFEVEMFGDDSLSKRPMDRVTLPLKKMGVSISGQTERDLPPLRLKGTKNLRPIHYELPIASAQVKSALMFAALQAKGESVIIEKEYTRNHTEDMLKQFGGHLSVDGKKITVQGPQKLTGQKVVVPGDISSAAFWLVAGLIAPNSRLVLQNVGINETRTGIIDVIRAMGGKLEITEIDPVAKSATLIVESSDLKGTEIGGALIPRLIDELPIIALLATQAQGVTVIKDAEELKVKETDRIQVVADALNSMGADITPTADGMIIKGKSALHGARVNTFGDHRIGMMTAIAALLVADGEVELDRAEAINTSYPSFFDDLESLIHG

Compound: N.N.N.O=C(O)C1=CC(=C(c2ccc(O)c(C(=O)O)c2)c2ccc(O)c(C(=O)O)c2)C=CC1=O [ATA ammonium salt]
- Inhibition type vs. S3P [1]: competitive inhibitors vs. S3P
- Inhibition of EPSPS (in words) [1]: specific inhibitors of EPSPS

Compound: O=C(O)C1=CC(=C(c2ccc(O)c(C(=O)O)c2)c2ccc(O)c(C(=O)O)c2)C=CC1=O [ATA sodium salt]
- Inhibition type vs. S3P [1]: competitive inhibitors vs. S3P
- Inhibition of EPSPS (in words) [1]: specific inhibitors of EPSPS

Compound: O=C(O)C1=CC(=C(c2ccc(O)c(C(=O)O)c2)c2ccc(O)c(C(=O)O)c2)C=CC1=O [Aurin Tricarboxylic Acid]
- Inhibition type vs. PEP [1]: Noncompetitive
- Inhibition type vs. S3P [1]: Competitive
- Inhibition type vs. S3P ([1]; listed as aurin tricarboxylic acid): competitive inhibitors vs. S3P
- pKi ([1]; Ki vs. S3P, EPSPS, competitive vs. S3P, range given for ATA and its sodium and ammonium salts together): 5.35 to 5.55
- MIC (S. pneumoniae 100993; [2]): 2 µg/mL (≈ 4.74 µM)
- MIC (S. pneumoniae 100993; [3]): 4 µg/mL
- MIC (S. pneumoniae 100993; [4]): > 128 µg/mL
- Activity in minimal media relative to TH media (S. pneumoniae 100993; minimal media versus TH media): more than 64 fold
- Effect of adding aromatic amino acids and PABA on antibacterial activity in minimal media (S. pneumoniae 100993): not reversed
- Potency against MurA relative to RA (MurA (E. coli); ATA versus RA, MurA from Escherichia coli): ~200 fold
- pKi (MurA (E. coli); Ki vs. UDPAG, varied substrate UDPAG): 6.64
- Inhibition type vs. PEP (MurA (E. coli); varied substrate PEP): Non-specific inhibition
- Inhibition type vs. UDPAG (MurA (E. coli); varied substrate UDPAG): Competitive
- Inhibition type vs. UDPAG (MurA (E. coli); varied substrate UDPAG, listed as ATA): competitive vs UDPAG
- Inhibition pattern of MurA versus both substrates (in words) (MurA (E. coli); versus UDPAG and PEP): specific inhibition patterns versus both substrates

Compound: O=C(N[C@H](CO)[C@H](O)c1ccc([N+](=O)[O-])cc1)C(Cl)Cl [Chloramphenicol]
- MIC (S. pneumoniae 100993; [5]): 2 µg/mL (≈ 6.19 µM)
- MIC (S. pneumoniae 100993; [6]): 2 µg/mL
- MIC (S. pneumoniae 100993; [7]): 2 µg/mL (≈ 6.19 µM)
- Antibacterial activity compared across media (S. pneumoniae 100993): substantially the same

Compound: O=C(O)c1cn(C2CC2)c2cc(N3CCNCC3)c(F)cc2c1=O [Ciprofloxacin]
- MIC (S. pneumoniae 100993; [5]): 2 µg/mL (≈ 6.04 µM)
- MIC (S. pneumoniae 100993; [6]): 2 µg/mL
- MIC (S. pneumoniae 100993; [7]): 2 µg/mL (≈ 6.04 µM)
- Antibacterial activity compared across media (S. pneumoniae 100993): substantially the same

Compound: O=C(O)CNCP(=O)(O)O [Glyphosate]
- MIC (S. pneumoniae 100993; [2]): 512 µg/mL (≈ 3030 µM)
- MIC (S. pneumoniae 100993; [3]): > 512 µg/mL
- MIC (S. pneumoniae 100993; [4]): > 512 µg/mL
- Antibacterial activity in TH media (in words) (S. pneumoniae 100993; TH media): no antibacterial activity
- Effect of adding aromatic amino acids and PABA on antibacterial activity in minimal media (S. pneumoniae 100993): reversed

Compound: O=C1C=CC(=C(c2ccc(O)cc2)c2ccc(O)cc2)C=C1 [Rosolic Acid]
- Inhibition type vs. PEP [1]: No inhibition (up to 2 mM)
- Inhibition type vs. S3P [1]: No inhibition (up to 2 mM)
- Inhibition of EPSPS (in words) [1]: does not inhibit EPSPS up to 2 mM
- Inhibition type vs. PEP (MurA (E. coli); varied substrate PEP): Mixed type inhibition
- pKi (MurA (E. coli); varied substrate PEP, mixed type inhibition, second constant, read-out: Ki′ vs. PEP): 3.56
- pKi (MurA (E. coli); varied substrate PEP, mixed type inhibition, read-out: Ki vs. PEP): 4.96
- Inhibition type vs. UDPAG (MurA (E. coli); varied substrate UDPAG): Competitive
- Inhibition type vs. UDPAG (MurA (E. coli); varied substrate UDPAG, listed as RA): competitive vs UDPAG; also recorded: competitive inhibitor versus UDPAG, although a poor one
- pKi (MurA (E. coli); varied substrate UDPAG, read-out: Ki vs. UDPAG): 4.35

Compound: O=C(O)C1=CC(=C(c2ccc(O)c(C(=O)O)c2)c2ccc(O)c(C(=O)O)c2)C=CC1=O [SKB-26488-W3, aurin tricarboxylic acid]
- IC50 against EPSPS ([1]; high-throughput screening of EPSPS): in the μM range
